{"source": "ChEMBL document CHEMBL4879553", "about": "“Data for DCP probe BAY1125976” (2021)", "key": {"[1]": {"target": "D(3) dopamine receptor (Homo sapiens) (UniProt P35462)", "conditions": "Compound concentration 10.0 uM"}, "[2]": {"target": "Mu-type opioid receptor (Homo sapiens) (UniProt P35372)", "conditions": "Compound concentration 10.0 uM"}, "[3]": {"target": "Muscarinic acetylcholine receptor M1 (Homo sapiens, UniProt P11229)", "sequence (P11229 whole entry)": "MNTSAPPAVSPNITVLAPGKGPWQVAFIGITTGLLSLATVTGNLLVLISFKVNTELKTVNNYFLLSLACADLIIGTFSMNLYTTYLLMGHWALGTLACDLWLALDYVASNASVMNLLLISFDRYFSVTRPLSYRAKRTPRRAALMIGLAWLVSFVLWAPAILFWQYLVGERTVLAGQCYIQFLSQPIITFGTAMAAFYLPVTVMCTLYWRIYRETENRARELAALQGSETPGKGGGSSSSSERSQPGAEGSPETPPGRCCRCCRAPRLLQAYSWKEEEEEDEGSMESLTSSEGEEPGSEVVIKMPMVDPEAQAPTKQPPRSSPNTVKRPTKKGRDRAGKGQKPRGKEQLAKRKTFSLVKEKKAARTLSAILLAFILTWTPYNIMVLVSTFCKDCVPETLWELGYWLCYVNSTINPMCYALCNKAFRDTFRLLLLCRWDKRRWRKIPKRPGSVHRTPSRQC", "test": "GPCRScan assay: inhibition of M1", "set-up": "radioligand conc. used [nm] 0.3 – 1.2, parental cells stable CHO"}, "[4]": {"target": "5-hydroxytryptamine receptor 1A (Homo sapiens) (UniProt P08908)", "conditions": "Compound concentration 10.0 uM"}, "[5]": {"target": "D(4) dopamine receptor (Homo sapiens) (UniProt P21917)", "conditions": "Compound concentration 10.0 uM"}, "[6]": {"target": "Alpha-1B adrenergic receptor (Homo sapiens) (UniProt P35368)", "conditions": "Compound concentration 10.0 uM"}, "[7]": {"target": "5-hydroxytryptamine receptor 3A (Homo sapiens) (UniProt P46098)", "sequence (P46098 whole entry)": "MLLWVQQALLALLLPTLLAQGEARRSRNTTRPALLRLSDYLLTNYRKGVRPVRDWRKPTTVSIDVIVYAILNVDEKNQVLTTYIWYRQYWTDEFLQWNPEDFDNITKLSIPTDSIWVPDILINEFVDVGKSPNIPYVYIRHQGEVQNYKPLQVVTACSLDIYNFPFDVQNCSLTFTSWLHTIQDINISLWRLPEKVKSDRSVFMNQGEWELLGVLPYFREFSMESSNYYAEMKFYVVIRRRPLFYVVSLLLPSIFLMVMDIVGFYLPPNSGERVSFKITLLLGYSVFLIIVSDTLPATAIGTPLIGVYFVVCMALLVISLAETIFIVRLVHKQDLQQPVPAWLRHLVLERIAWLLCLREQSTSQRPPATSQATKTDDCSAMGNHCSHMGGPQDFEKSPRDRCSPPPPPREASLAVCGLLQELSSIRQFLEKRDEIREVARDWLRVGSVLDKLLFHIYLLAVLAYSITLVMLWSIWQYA", "conditions": "Compound concentration 10.0 uM"}, "[8]": {"test": "Mechanistic cell assay: Reduction of the basal levels of AKT phosphorylation in KPL-4 cells at S473", "type": "cell-based", "conditions": "Homo sapiens, KPL4"}, "Rattus norvegicus": {"organism": "Rattus norvegicus", "conditions": "Compound concentration 10.0 uM"}, "[9]": {"target": "5-hydroxytryptamine receptor 1B (Homo sapiens) (UniProt P28222)", "sequence (P28222 whole entry)": "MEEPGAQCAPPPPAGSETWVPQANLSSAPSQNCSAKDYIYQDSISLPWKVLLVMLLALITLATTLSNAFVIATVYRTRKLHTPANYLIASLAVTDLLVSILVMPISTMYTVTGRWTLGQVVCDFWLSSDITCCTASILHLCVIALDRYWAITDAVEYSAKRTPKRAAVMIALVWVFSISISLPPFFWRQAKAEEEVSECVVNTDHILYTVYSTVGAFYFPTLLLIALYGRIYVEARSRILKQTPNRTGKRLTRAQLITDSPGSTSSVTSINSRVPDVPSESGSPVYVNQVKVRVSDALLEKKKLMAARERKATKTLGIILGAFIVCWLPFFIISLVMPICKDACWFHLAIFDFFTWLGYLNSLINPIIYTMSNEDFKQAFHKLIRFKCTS", "conditions": "Compound concentration 10.0 uM"}, "[10]": {"target": "Alpha-1D adrenergic receptor (Homo sapiens) (UniProt P25100)", "conditions": "Compound concentration 10.0 uM"}, "[11]": {"target": "Sigma non-opioid intracellular receptor 1 (Homo sapiens) (UniProt Q99720)", "sequence (Q99720 whole entry)": "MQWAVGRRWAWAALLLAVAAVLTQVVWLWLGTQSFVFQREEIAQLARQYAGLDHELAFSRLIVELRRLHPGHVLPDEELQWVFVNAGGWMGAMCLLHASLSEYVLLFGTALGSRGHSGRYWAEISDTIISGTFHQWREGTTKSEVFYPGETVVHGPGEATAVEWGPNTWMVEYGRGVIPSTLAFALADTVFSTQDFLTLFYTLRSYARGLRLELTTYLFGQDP", "conditions": "Compound concentration 10.0 uM"}, "[12]": {"test": "Mechanistic cell assay: Reduction of the basal levels of AKT phosphorylation in KPL-4 cells at T308", "type": "cell-based", "conditions": "Homo sapiens, KPL4"}, "[13]": {"target": "D(2) dopamine receptor (Homo sapiens) (UniProt P14416)", "conditions": "Compound concentration 10.0 uM"}, "[14]": {"target": "5-hydroxytryptamine receptor 7 (Homo sapiens) (UniProt P34969)", "sequence (P34969 whole entry)": "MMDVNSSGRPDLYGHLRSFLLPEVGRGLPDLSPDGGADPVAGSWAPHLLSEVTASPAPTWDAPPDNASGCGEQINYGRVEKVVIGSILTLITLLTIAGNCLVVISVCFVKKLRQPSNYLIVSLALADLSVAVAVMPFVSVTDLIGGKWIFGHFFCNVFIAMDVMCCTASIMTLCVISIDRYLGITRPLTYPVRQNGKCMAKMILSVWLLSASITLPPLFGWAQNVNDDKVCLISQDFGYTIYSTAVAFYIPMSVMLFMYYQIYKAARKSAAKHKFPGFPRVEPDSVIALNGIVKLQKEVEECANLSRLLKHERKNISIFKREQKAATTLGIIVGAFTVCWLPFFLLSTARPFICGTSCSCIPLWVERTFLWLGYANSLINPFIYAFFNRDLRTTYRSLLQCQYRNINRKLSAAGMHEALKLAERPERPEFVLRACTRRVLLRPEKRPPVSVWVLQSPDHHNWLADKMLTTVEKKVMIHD", "conditions": "Compound concentration 10.0 uM"}, "[15]": {"target": "Sodium-dependent serotonin transporter (Homo sapiens) (UniProt P31645)", "conditions": "Compound concentration 10.0 uM"}, "[16]": {"target": "5-hydroxytryptamine receptor 2C (Homo sapiens) (UniProt P28335)", "conditions": "Compound concentration 10.0 uM"}, "[17]": {"target": "Alpha-2B adrenergic receptor (Homo sapiens) (UniProt P18089)", "conditions": "Compound concentration 10.0 uM"}, "[18]": {"test": "NanoBRET (AKT1)", "conditions": "Homo sapiens"}, "[19]": {"test": "Mechanistic cell assay: Inhibition of phosphorylation (4EBPI-T70)", "conditions": "Homo sapiens"}, "[20]": {"test": "Mechanistic cell assay: Blocking of the activation of the downstream signaling molecule 4EBP1 by phosphorylation at mTOR substrate T70", "set-up": "species or system Homo sapiens"}, "[21]": {"target": "Muscarinic acetylcholine receptor M4 (Homo sapiens) (UniProt P08173)", "conditions": "Compound concentration 10.0 uM"}, "[22]": {"target": "Delta-type opioid receptor (Homo sapiens) (UniProt P41143)", "conditions": "Compound concentration 10.0 uM"}, "[23]": {"test": "Mechanistic cell assay: Inhibition of phosphorylation (T308)", "conditions": "Homo sapiens"}, "[24]": {"target": "D(1A) dopamine receptor (Homo sapiens) (UniProt P21728)", "conditions": "Compound concentration 10.0 uM"}, "[25]": {"target": "GABA-A receptor; anion channel (Rattus norvegicus) (UniProt O09028+P15431+P18506+P18508+P19969+P20236+P23574+P23576+P28471+P28473+P30191+P62813+P63079+P63138+Q91ZM7+Q9ES14)", "conditions": "Compound concentration 10.0 uM"}, "[26]": {"test": "Mechanistic cell assay: Inhibition of phosphorylation (AKT1-S473)", "conditions": "Homo sapiens"}, "[27]": {"target": "Muscarinic acetylcholine receptor M5 (Homo sapiens) (UniProt P08912)", "conditions": "Compound concentration 10.0 uM"}, "[28]": {"test": "Mechanistic cell assay: Inhibition of activation by phosphorylation (4EBPI-T70)", "conditions": "Homo sapiens"}, "[29]": {"target": "Sodium-dependent dopamine transporter (Homo sapiens) (UniProt Q01959)", "conditions": "Compound concentration 10.0 uM"}, "[30]": {"target": "Beta-2 adrenergic receptor (Homo sapiens) (UniProt P07550)", "sequence (P07550 whole entry, looked up)": "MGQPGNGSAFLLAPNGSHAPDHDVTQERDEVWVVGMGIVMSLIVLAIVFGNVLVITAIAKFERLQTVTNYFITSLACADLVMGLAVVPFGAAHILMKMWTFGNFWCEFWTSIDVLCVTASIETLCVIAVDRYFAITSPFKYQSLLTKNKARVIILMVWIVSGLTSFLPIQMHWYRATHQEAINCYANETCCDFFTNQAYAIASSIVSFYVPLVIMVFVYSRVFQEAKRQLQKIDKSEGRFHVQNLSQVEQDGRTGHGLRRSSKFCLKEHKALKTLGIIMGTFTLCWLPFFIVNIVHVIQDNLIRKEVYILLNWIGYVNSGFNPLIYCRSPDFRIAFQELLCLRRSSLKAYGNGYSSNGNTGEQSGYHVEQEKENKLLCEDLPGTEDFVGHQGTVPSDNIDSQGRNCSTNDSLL", "conditions": "Compound concentration 10.0 uM"}, "[31]": {"target": "Sodium-dependent noradrenaline transporter (Homo sapiens) (UniProt P23975)", "conditions": "Compound concentration 10.0 uM"}, "[32]": {"target": "5-hydroxytryptamine receptor 2A (Homo sapiens) (UniProt P28223)", "conditions": "Compound concentration 10.0 uM"}, "[33]": {"target": "Beta-1 adrenergic receptor (Homo sapiens) (UniProt P08588)", "sequence (P08588 whole entry, looked up)": "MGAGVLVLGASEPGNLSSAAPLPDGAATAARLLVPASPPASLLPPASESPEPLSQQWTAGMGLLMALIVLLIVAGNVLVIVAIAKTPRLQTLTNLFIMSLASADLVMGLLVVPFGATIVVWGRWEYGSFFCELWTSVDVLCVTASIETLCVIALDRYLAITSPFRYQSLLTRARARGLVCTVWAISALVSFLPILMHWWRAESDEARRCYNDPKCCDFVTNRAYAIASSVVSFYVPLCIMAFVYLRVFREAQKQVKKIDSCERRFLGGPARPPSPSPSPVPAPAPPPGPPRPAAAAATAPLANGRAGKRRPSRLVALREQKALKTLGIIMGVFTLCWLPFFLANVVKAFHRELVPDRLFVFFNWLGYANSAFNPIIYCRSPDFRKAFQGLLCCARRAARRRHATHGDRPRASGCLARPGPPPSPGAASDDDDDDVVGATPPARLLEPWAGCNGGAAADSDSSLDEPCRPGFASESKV", "conditions": "Compound concentration 10.0 uM"}, "[34]": {"target": "Histamine H3 receptor (Homo sapiens) (UniProt Q9Y5N1)", "conditions": "Compound concentration 10.0 uM"}, "[35]": {"target": "Muscarinic acetylcholine receptor M2 (Homo sapiens) (UniProt P08172)", "sequence (P08172 whole entry)": "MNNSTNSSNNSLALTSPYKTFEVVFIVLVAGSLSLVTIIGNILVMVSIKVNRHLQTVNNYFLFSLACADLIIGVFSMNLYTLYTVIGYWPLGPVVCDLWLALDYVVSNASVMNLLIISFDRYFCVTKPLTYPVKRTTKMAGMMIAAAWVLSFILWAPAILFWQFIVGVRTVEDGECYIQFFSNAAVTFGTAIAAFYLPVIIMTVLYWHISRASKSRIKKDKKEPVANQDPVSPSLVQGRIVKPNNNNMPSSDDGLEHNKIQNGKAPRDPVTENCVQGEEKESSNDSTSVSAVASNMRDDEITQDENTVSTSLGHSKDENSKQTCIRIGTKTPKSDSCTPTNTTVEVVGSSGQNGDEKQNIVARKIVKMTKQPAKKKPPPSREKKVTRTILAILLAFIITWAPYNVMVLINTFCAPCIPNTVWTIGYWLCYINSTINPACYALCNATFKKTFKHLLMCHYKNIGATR", "conditions": "Compound concentration 10.0 uM"}, "[36]": {"target": "Muscarinic acetylcholine receptor M3 (Homo sapiens) (UniProt P20309)", "conditions": "Compound concentration 10.0 uM"}, "[37]": {"target": "Alpha-2A adrenergic receptor (Homo sapiens) (UniProt P08913)", "conditions": "Compound concentration 10.0 uM"}, "[38]": {"target": "Sigma intracellular receptor 2 (Homo sapiens) (UniProt Q5BJF2)", "sequence (Q5BJF2 whole entry)": "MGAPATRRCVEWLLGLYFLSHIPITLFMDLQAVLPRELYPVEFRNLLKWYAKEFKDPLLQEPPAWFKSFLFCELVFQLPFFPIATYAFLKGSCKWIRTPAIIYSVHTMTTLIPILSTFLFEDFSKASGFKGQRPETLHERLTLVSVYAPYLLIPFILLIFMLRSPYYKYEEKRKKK", "conditions": "Compound concentration 10.0 uM"}, "[39]": {"test": "NanoBRET (AKT2)", "conditions": "Homo sapiens"}, "[40]": {"target": "D(1B) dopamine receptor (Homo sapiens) (UniProt P21918)", "conditions": "Compound concentration 10.0 uM"}, "[41]": {"target": "5-hydroxytryptamine receptor 5A (Homo sapiens) (UniProt P47898)", "conditions": "Compound concentration 10.0 uM"}, "[42]": {"target": "5-hydroxytryptamine receptor 6 (Homo sapiens) (UniProt P50406)", "sequence (P50406 whole entry)": "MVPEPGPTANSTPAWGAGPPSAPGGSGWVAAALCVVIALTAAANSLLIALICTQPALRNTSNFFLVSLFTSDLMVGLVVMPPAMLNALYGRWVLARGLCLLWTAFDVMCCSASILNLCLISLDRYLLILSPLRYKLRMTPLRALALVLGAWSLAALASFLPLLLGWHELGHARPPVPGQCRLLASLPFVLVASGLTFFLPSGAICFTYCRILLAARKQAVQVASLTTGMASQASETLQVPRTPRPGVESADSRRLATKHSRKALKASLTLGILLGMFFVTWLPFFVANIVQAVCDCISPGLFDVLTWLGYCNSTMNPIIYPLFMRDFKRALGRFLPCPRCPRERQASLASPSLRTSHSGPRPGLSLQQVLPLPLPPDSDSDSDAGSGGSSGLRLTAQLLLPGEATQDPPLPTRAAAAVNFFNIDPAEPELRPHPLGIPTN", "conditions": "Compound concentration 10.0 uM"}, "[43]": {"target": "Histamine H1 receptor (Homo sapiens) (UniProt P35367)", "sequence (P35367 whole entry)": "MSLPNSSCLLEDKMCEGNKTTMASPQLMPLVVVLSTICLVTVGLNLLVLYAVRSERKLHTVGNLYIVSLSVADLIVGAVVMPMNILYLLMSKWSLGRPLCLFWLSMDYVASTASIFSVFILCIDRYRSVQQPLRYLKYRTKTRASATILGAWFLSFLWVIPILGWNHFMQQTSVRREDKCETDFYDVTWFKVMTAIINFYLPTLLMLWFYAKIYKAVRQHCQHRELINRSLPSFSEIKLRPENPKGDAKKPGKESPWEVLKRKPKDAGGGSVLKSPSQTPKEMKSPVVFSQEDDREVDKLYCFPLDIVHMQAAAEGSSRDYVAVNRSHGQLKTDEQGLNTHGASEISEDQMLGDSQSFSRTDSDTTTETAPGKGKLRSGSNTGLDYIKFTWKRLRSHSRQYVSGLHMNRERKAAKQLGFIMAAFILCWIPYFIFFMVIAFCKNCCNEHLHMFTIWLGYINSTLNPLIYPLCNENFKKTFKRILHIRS", "conditions": "Compound concentration 10.0 uM"}, "[44]": {"test": "Mechanistic cell assay: inhibition of PRAS40 phosphorylation at T246", "conditions": "Homo sapiens"}, "[45]": {"target": "Muscarinic acetylcholine receptor M1 (Homo sapiens) (UniProt P11229)", "sequence (P11229 whole entry)": "as the sequence (P11229 whole entry) above", "conditions": "Compound concentration 10.0 uM"}, "[46]": {"target": "Alpha-1A adrenergic receptor (Homo sapiens) (UniProt P35348)", "conditions": "Compound concentration 10.0 uM"}, "[47]": {"target": "Alpha-2C adrenergic receptor (Homo sapiens) (UniProt P18825)", "conditions": "Compound concentration 10.0 uM"}, "[48]": {"target": "Beta-3 adrenergic receptor (Homo sapiens) (UniProt P13945)", "conditions": "Compound concentration 10.0 uM"}, "[49]": {"test": "Mechanistic cell assay: Inhibition of activation by phosphorylation (AKT1-S473)", "conditions": "Homo sapiens"}, "[50]": {"target": "5-hydroxytryptamine receptor 1D (Homo sapiens) (UniProt P28221)", "sequence (P28221 whole entry)": "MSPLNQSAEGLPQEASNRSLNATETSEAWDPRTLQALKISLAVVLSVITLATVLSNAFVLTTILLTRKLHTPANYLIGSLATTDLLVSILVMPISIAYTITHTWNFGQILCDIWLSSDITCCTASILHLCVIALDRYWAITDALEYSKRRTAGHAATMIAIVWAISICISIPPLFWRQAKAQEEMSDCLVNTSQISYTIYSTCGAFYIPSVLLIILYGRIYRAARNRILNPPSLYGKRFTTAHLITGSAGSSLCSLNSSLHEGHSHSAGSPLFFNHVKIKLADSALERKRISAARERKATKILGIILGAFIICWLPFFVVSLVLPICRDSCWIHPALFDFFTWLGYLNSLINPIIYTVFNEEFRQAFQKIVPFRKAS", "conditions": "Compound concentration 10.0 uM"}, "[51]": {"target": "5-hydroxytryptamine receptor 2B (Homo sapiens) (UniProt P41595)", "conditions": "Compound concentration 10.0 uM"}, "[52]": {"target": "Kappa-type opioid receptor (Homo sapiens) (UniProt P41145)", "conditions": "Compound concentration 10.0 uM"}, "[53]": {"target": "Histamine H2 receptor (Homo sapiens) (UniProt P25021)", "conditions": "Compound concentration 10.0 uM"}, "[54]": {"target": "RAC-gamma serine/threonine-protein kinase (Homo sapiens, UniProt Q9Y243)", "test": "NanoBRET (AKT3)"}}, "note": "The source made the active and inactive calls. The rule behind the calls is not given here.", "data": [{"smiles": "NC(=O)c1ccc2nc(-c3ccc(C4(N)CCC4)cc3)c(-c3ccccc3)n2n1", "note": "[BAY-1125976]", "values": [{"measurement": "inhibition", "setting": "[1]", "result": 22.6, "unit": "%"}, {"measurement": "inhibition", "setting": "[2]", "result": 31.1, "unit": "%"}, {"measurement": "Ki", "setting": "[3]; read-out: Ki", "result": 1450, "unit": "nM"}, {"measurement": "Ki", "setting": "[3]; read-out: pKi (converted)", "result": 1350, "unit": "nM"}, {"measurement": "inhibition", "setting": "[4]", "result": 32.7, "unit": "%"}, {"measurement": "inhibition", "setting": "[5]", "result": 7.35, "unit": "%"}, {"measurement": "inhibition", "setting": "[6]", "result": -8.97, "unit": "%"}, {"measurement": "inhibition", "setting": "[7]", "result": 10.8, "unit": "%"}, {"measurement": "IC50", "setting": "[8]", "result": "1.1 nM (active)"}, {"measurement": "inhibition", "setting": "Rattus norvegicus", "result": 40.5, "unit": "%"}, {"measurement": "inhibition", "setting": "[9]", "result": 10.2, "unit": "%"}, {"measurement": "inhibition", "setting": "[10]", "result": 37.8, "unit": "%"}, {"measurement": "inhibition", "setting": "[11]", "result": -1.31, "unit": "%"}, {"measurement": "IC50", "setting": "[12]", "result": "0.9 nM (active)"}, {"measurement": "inhibition", "setting": "[13]", "result": -1.55, "unit": "%"}, {"measurement": "inhibition", "setting": "[14]", "result": 12.9, "unit": "%"}, {"measurement": "inhibition", "setting": "[15]", "result": 14.8, "unit": "%"}, {"measurement": "inhibition", "setting": "[16]", "result": 25.7, "unit": "%"}, {"measurement": "inhibition", "setting": "[17]", "result": 28.7, "unit": "%"}, {"measurement": "EC50", "setting": "[18]", "result": "15 nM (active)"}, {"measurement": "IC50", "setting": "[18]", "result": "2.84 nM (active)"}, {"measurement": "IC50", "setting": "[19]", "result": "35 nM (active)"}, {"measurement": "IC50", "setting": "[20]", "result": "35 nM (active)"}, {"measurement": "inhibition", "setting": "[21]", "result": 12.4, "unit": "%"}, {"measurement": "inhibition", "setting": "[22]", "result": 26.9, "unit": "%"}, {"measurement": "IC50", "setting": "[23]", "result": "5.6 nM (active)"}, {"measurement": "inhibition", "setting": "[24]", "result": -3.8, "unit": "%"}, {"measurement": "inhibition", "setting": "[25]", "result": 38, "unit": "%"}, {"measurement": "IC50", "setting": "[26]", "result": "0.8 nM (active)"}, {"measurement": "inhibition", "setting": "[27]", "result": 1.83, "unit": "%"}, {"measurement": "IC50", "setting": "[28]", "result": "100 nM (active)"}, {"measurement": "inhibition", "setting": "[29]", "result": 40, "unit": "%"}, {"measurement": "inhibition", "setting": "[30]", "result": 21.5, "unit": "%"}, {"measurement": "inhibition", "setting": "[31]", "result": 47.5, "unit": "%"}, {"measurement": "inhibition", "setting": "[32]", "result": 8.08, "unit": "%"}, {"measurement": "inhibition", "setting": "[33]", "result": 16.8, "unit": "%"}, {"measurement": "inhibition", "setting": "[34]", "result": 14.6, "unit": "%"}, {"measurement": "inhibition", "setting": "[35]", "result": 11.2, "unit": "%"}, {"measurement": "inhibition", "setting": "[36]", "result": 20.1, "unit": "%"}, {"measurement": "inhibition", "setting": "[37]", "result": 6.89, "unit": "%"}, {"measurement": "inhibition", "setting": "[38]", "result": 39.9, "unit": "%"}, {"measurement": "EC50", "setting": "[39]", "result": "30 nM (active)"}, {"measurement": "IC50", "setting": "[39]", "result": "10.7 nM (active)"}, {"measurement": "inhibition", "setting": "[40]", "result": 23.4, "unit": "%"}, {"measurement": "inhibition", "setting": "[41]", "result": 9.78, "unit": "%"}, {"measurement": "inhibition", "setting": "[42]", "result": 17.8, "unit": "%"}, {"measurement": "inhibition", "setting": "[43]", "result": 30.8, "unit": "%"}, {"measurement": "IC50", "setting": "[44]", "result": "141 nM (active)"}, {"measurement": "inhibition", "setting": "[45]", "result": 71.9, "unit": "%"}, {"measurement": "inhibition", "setting": "[46]", "result": 39.4, "unit": "%"}, {"measurement": "inhibition", "setting": "[47]", "result": 38.9, "unit": "%"}, {"measurement": "inhibition", "setting": "[48]", "result": 11.4, "unit": "%"}, {"measurement": "IC50", "setting": "[49]", "result": "35 nM (active)"}, {"measurement": "inhibition", "setting": "[50]", "result": 12.2, "unit": "%"}, {"measurement": "inhibition", "setting": "[51]", "result": 13.4, "unit": "%"}, {"measurement": "inhibition", "setting": "[52]", "result": 25.4, "unit": "%"}, {"measurement": "inhibition", "setting": "[53]", "result": 0.95, "unit": "%"}]}, {"smiles": "NC1(c2ccc(-c3nc4c(O)ccnn4c3-c3ccccc3)cc2)CCC1", "values": [{"measurement": "EC50", "setting": "[54]", "result": "> 50000 nM (not active)"}, {"measurement": "EC50", "setting": "[18]", "result": "1300 nM (not active)"}, {"measurement": "IC50", "setting": "[18]", "result": "6000 nM (not active)"}]}]}
